Measurements: US10722519B2, “Aerosol fluoroquinolone formulations for improved pharmacokinetics” (priority 2008, dated 2020)
Values after ≈ are worked out from the molar mass of the structure shown. Like-named read-outs stand apart in the source and are kept apart here.

What was measured:
[1] = test system: P. aeruginosa ATCC 27853; test: Acute mouse lung infection model; conditions: mice; for survival rate: monitored over 9 days; for maximum dose, limited due to toxicity: aerosol route
Experimental: Aerosol Administration of antibiotics: Antibiotics were aerosolized using a microspray aerosol device (MicroSprayer Model IA-C, PennCentury, Philadelphia, Pa.) attached to a FMJ-250 High-Pressure Syringe (PennCentury, Philadelphia, Pa.). […] For administration, each mouse was anesthetized (5% isoflurane in oxygen running at 4 L/min) and positioned securely at a 45-50° angle by the upper teeth, the microspray aerosol tip was inserted to the bifurcation and a 50 μl volume was administered.
The bacterial suspensions were adjusted to approximately 1-6×10^5 CFU/ml by correlation of the absorbance at 600 nm with predetermined plate counts. […] On day 4, mice were infected by intratracheal (IT) instillation of 0.05 ml of inoculum using a curved oral gavage tip attached to a 1 ml syringe. […] Antibiotics were aerosolized using a microspray aerosol device. All infections and aerosol treatments were performed under isoflurane anesthesia (5% isoflurane in oxygen running at 4 L/min). An untreated group of mice (n=8) was sacrificed prior to the initiation of treatment to determine baseline bacterial counts. […] The lungs were removed aseptically and homogenized (Pro200 homogenizer, Pro Scientific, Monroe, Conn.) in 1 ml of sterile saline. Serial 10-fold dilutions of the homogenized lung were plated on Mueller-hinton agar (MHA), and colonies counted.
In addition, due to the need for anesthesia for treatment, the maximum number of daily doses was limited to two.

[2] = test system: P. aeruginosa NH57388A; test: MIC, broth microdilution; format: cell-based; conditions: P. aeruginosa NIH57388A CF
Experimental: (§1) Bacterial strains MIC testing: P. aeruginosa ATCC 27853 and NH57388A were used in these studies. MICs were determined by a broth microdilution assay according to CLSI reference methods (Methods for dilution of antimicrobial susceptibility test for bacteria that grow aerobically. Seventh Edition: Clinical and Laboratory Standards Institute (2006) M&-A7, incorporated by reference in its entirety). Assays were performed in a final volume of 100 μl. The bacterial suspensions were adjusted to yield a cell density of 5×10^5 CFU/ml. Antibiotics were prepared at a concentration equivalent to twofold the highest desired final concentration in culture medium and were then diluted directly into 96-well microtiter plates. Microtiter plates were incubated for 24 h at 35° C. and were read by using a microtiter plate reader (Molecular Devices) at 600 nm as well as by visual observation by using a microtiter plate reading mirror.

[3] = test system: P. aeruginosa ATCC 27853; test: MIC, broth microdilution; format: cell-based; conditions: Pseudomonas aeruginosa, ATCC27853, P. aeruginosa ATCC27853
Experimental: as §1

[4] = in vivo; conditions: rat, 10 mg/kg
Experimental: This example relates to aerosol and intravenous administration of fluoroquinolones in saline. A rat pharmacokinetic model was used to compare intravenous and pulmonary administration of fluoroquinolones. […] Doses were administered via the lateral tail vein, or to the lung just above the tracheal bifurcation using a micro-spray aerosol device (Penn Century, Philadelphia, Pa.).
Approximately 0.3 ml blood samples were taken from 2-6 rats at each timepoint via an indwelling jugular vein cannula, and collected in lithium heparin tubes. Bronchial alveolar lavage (BAL) and lung tissue were collected following euthanasia. […] Sample concentrations were determined against a standard curve.

[5] = aerosol dose of […], adults with cystic fibrosis, Cooney et al. 1994; cited from earlier work
[6] = test system: P. aeruginosa NH57388A; test: Chronic mouse lung infection model; format: in vivo; conditions: mice, aerosol tobramycin 60 mg/kg twice a day for three consecutive days
Experimental: Bacterial cells were harvested by centrifugation (23,000×g, 30 min, at 4° C.) and resuspended in 3-6 ml of MHB. The supernatant was collected and placed in 80° C. water-bath for 30 min. […] The precipitated alginate was collected with a sterile bacterial loop and washed several times in sterile saline. The purified alginate was then resuspended in 10 ml of sterile saline and stirred vigorously to form a homogeneous suspension. […] The bacterial suspension was diluted (1:10) in the alginate suspension to yield about 10^8 CFU/ml. […] On day 4, the mice were infected using a curved bead-tipped oral gavage attached to a 1 ml syringe while under isoflurane anesthesia.

[7] = Pseudomonas aeruginosa, NH57388A, read-out: MIC
[8] = male, Sprague-Dawley, in vivo, inhaled or intranasal
[9] = male, Sprague-Dawley, in vivo, iv

SMILES	maximum dose, limited due to toxicity [1] [mg/kg]	MIC [2, 7] [µg/mL]	F, % from Lung vs IV ([4]; male, Sprague-Dawley, in vivo) [%]	MAT ([4]; male, Sprague-Dawley, in vivo) [h]	AUC [4, 8] [ng·h/mL]	AUC(0-inf) [4, 8] [ng·h/mL]	MRT [4, 8] [h]	half-life [4, 8] [h]	AUC [4, 9] [ng·h/mL]	AUC(0-inf) [4, 9] [ng·h/mL]	MRT [4, 9] [h]	half-life [4, 9] [h]	also measured
C[C@H]1[C@H](NC(=O)/C(=N\OC(C)(C)C(=O)O)c2csc(N)n2)C(=O)N1S(=O)(=O)O [Aztreonam, aztreonam]	400	4 (≈ 9.19 µM)											survival rate ([1]; aerosol 800 mg/kg/day (400 mg/kg BID)): 20%; mean reductions in bacterial counts ([1]; aerosol aztreonam 400 mg/kg twice a day for 2 consecutive days): 0.24 log CFU per lung; MIC [3]: 4 µg/mL (≈ 9.19 µM)
CO/N=C1\CN(c2nc3c(cc2F)c(=O)c(C(=O)O)cn3C2CC2)CC1CN (stereo not shown) [Gemifloxacin, gemifloxacin]			86	0.65	140000	5860	2.06	1.68	900	4540	1.41	1.04	
NC[C@H]1O[C@H](O[C@H]2[C@H](O)[C@@H](O[C@H]3O[C@H](CO)[C@@H](O)[C@H](N)[C@H]3O)[C@H](N)C[C@@H]2N)[C@H](N)C[C@@H]1O [Tobramycin, tobramycin]	60	< 1											bioavailability [5]: about 9%; survival rate ([1]; aerosol 120 mg/kg/day (60 mg/kg BID)): 60%; mean reductions in bacterial counts ([1]; aerosol tobramycin 60 mg/kg twice a day for 2 consecutive days): 2.70 log CFU per lung; MIC [2]: 0.5 µg/mL (≈ 1.07 µM); mean log CFU reductions [6]: 2.9 log CFU
CCn1cc(C(=O)O)c(=O)c2cc(F)c(N3CCNCC3)cc21 [Norfloxacin, norfloxacin]			100	0	24600	4460	1.29	1.13	800	4650	1.59	1.21	
O=C(O)c1cn(C2CC2)c2cc(N3CCNCC3)c(F)cc2c1=O [Ciprofloxacin, ciprofloxacin]													MAT ([4]; Aerosol, in saline): 0.59 h
COc1c(N2CCNC(C)C2)c(F)cc2c(=O)c(C(=O)O)cn(C3CC3)c12 (stereo not shown) [Gatifloxacin, gatifloxacin]			100	0	3120	5830	1.34	1.13	350	5310	1.39	1.06	
